Reference: patent publication US8569372B2, “Method for preventing or treating a disease, disorder or condition induced by retina ischemia” (priority 2011, dated 2013)

System: MMP-9
Assay: ELISA of MMP-9 protein in RGC-5 cells under H2O2 oxidative stress
Format: cell-based
Settings: 100 μM SAC 15-minute pre-treatment, 500 μM H2O2 24 hours; control 29.33±4.93, H2O2 100.70±18.80; n=6
Method: In the enzyme-linked immunosorbent assay (ELISA), the cells (2.5×10^4 in each well) were plated into 96-well plates. Each well contains 200 μl of DMEM (control) without or with H2O2. Next, the cells were incubated at 37° C. for 1 day and then shifted to serum free medium for the following day. In order to stimulate oxidative stress, 500 μM H2O2 (Sigma-Aldrich 18304/k0250, St Louis, Mo., USA) was then added for 24 hours as described elsewhere. Depending on the experimental protocol, SAC or vehicle was added to some samples 15 minutes before adding H2O2. […] Total protein was determined using a bicinchoninic acid protein kit (Thermo Fisher Scientific Inc., IL, U.S.A.). The HIF-1 Alpha/VEGF/MMP-9 levels in the cells/medium were measured using various ELISA kits, namely HIF-1 Alpha (Uscn Life Science Inc., Wuhan 430056, China); VEGF-A (BMS277/2, Bender […], Austria) and MMP-9 Duoset (D911, R&D, Minneapolis, Minn., U.S.A.). […] The HIF-1 Alpha/VEGF/MMP-9 concentration of each sample was determined by constructing a standard curve using 100 μl of sample diluent containing various amounts of HIF-1 Alpha/VEGF/MMP-9 pure protein (0-1000 pg/ml). […] The absorbance (optical intensity, O.D.) was detected at 450 nm by spectrophotometer (ELx800, Biotek, Winooski, Vt., U.S.A.). […]

SMILES: C=CCSC[C@H](N)C(=O)O [SAC, S-allyl L-cysteine]
- MMP-9 protein level (ELISA): 52.55 ± 2.72 pg/mL
